# US20250375455A1 (priority 2022, published 2025)
# Where a name gives a salt, the structure may show the parent alone. Read-outs that look alike come from different tables or passages of the source.
# Experiments:
# Test in all cases: microbe, parasite or virus in culture
# Mtb-lineage2 = assay type: cell-based, Mycobacterium tuberculosis; details: for direct inhibition of growth: Mtb-lineage2, in-vitro, 5, 10 and 50 μM, over 20 days; for IC50 / MIC: Mycobacterium tuberculosis
# Mtb-lineage4 = assay type: cell-based, Mycobacterium tuberculosis; details: for direct inhibition of growth: Mtb-lineage4, in-vitro, 5, 10 and 50 μM, over 20 days
# M. bovis = assay type: cell-based, Mycobacterium bovis; details: for MIC: Mycobacterium tuberculosis variant bovis
# Maf-lineage5 = assay type: cell-based, Mycobacterium africanum; details: for direct inhibition of growth: Maf-lineage5, in-vitro, 5, 10 and 50 μM, over 20 days
# Maf-lineage6 = assay type: cell-based, Mycobacterium africanum; details: for direct inhibition of growth: Maf-lineage6, in-vitro, 5, 10 and 50 μM, over 20 days; for MIC: Mycobacterium tuberculosis
smiles,measurement,setting,value
C#Cc1cccc(Nc2ncnc3cc(OCCOC)c(OCCOC)cc23)c1 [Erlotinib],direct inhibition of growth,Mtb-lineage2,directly inhibit growth
same,IC50,"Mtb-lineage2; 360 h, Mtb-lineage2, Day 15",16.3 µM
same,MIC,"Mtb-lineage2; 360 h, Mtb-lineage2, Day 15, read-out: MIC",33 µM
same,IC50,"Mtb-lineage2; 384 h, Mtb-lineage2, Day 16",10.1 µM
same,MIC,"Mtb-lineage2; 384 h, Mtb-lineage2, Day 16, read-out: MIC",~1.07 µM
same,IC50,"Mtb-lineage2; 408 h, Mtb-lineage2, Day 17",8.65 µM
same,MIC,"Mtb-lineage2; 408 h, Mtb-lineage2, Day 17, read-out: MIC",41 µM
same,IC50,"Mtb-lineage2; 456 h, Mtb-lineage2, Day 19",6.79 µM
same,MIC,"Mtb-lineage2; 456 h, Mtb-lineage2, Day 19, read-out: MIC",49.4 µM
same,IC50,"Mtb-lineage2; 480 h, Mtb-lineage2, Day 20",6.19 µM
same,IC50,"Mtb-lineage2; […], Mtb-lineage2, Day 18",7.61 µM
same,MIC,"Mtb-lineage2; […], Mtb-lineage2, Day 18, read-out: MIC",43.6 µM
same,direct inhibition of growth,Mtb-lineage4,directly inhibit growth
same,direct inhibition of growth,M. bovis,directly inhibit growth
same,direct inhibition of growth,Maf-lineage5,directly inhibit growth
same,direct inhibition of growth,Maf-lineage6,directly inhibit growth
COc1cc2ncnc(Nc3ccc(F)c(Cl)c3)c2cc1OCCCN1CCOCC1 [Gefitinib],MIC,Mtb-lineage2; 240 h,54.3 µM
same,MIC,Mtb-lineage2; 288 h,54.3 µM
same,MIC,Mtb-lineage2; 312 h,52.2 µM
same,MIC,Mtb-lineage2; 336 h,54.8 µM
same,MIC,Mtb-lineage2; […],52.7 µM
"Cc1ccc(NC(=O)c2ccc(CN3CCN(C)CC3)cc2)cc1Nc1nccc(-c2cccnc2)n1 [Imatinib, Imatinib mesylate]",susceptibility to direct inhibition,"Mtb-lineage2; Example 4, Mtb-lineage2, concentrations up to 200 μM",more susceptible to direct inhibition
same,direct inhibition of growth,Mtb-lineage2,directly restricted the growth
same,MIC,"Mtb-lineage2; 240 h, Mtb-lineage2 (a), Day 10, read-out: MIC",56 µM
same,MIC,"Mtb-lineage2; 240 h, Mtb-lineage2 (b), Day 10, read-out: MIC",60.4 µM
same,MIC,"Mtb-lineage2; 240 h, Mtb-lineage2, Day 10, read-out: MIC",56 µM
same,MIC,"Mtb-lineage2; 288 h, Mtb-lineage2 (a), Day 12, read-out: MIC",56.7 µM
same,MIC,"Mtb-lineage2; 288 h, Mtb-lineage2 (b), Day 12, read-out: MIC",60.7 µM
same,MIC,"Mtb-lineage2; 288 h, Mtb-lineage2, Day 12, read-out: MIC",56.7 µM
same,MIC,"Mtb-lineage2; 312 h, Mtb-lineage2 (a), Day 13, read-out: MIC",57.1 µM
same,MIC,"Mtb-lineage2; 312 h, Mtb-lineage2 (b), Day 13, read-out: MIC",60.5 µM
same,MIC,"Mtb-lineage2; 312 h, Mtb-lineage2, Day 13, read-out: MIC",57.1 µM
same,MIC,"Mtb-lineage2; 336 h, Mtb-lineage2 (a), Day 14, read-out: MIC",57.4 µM
same,MIC,"Mtb-lineage2; 336 h, Mtb-lineage2 (b), Day 14, read-out: MIC",85.4 µM
same,MIC,"Mtb-lineage2; 336 h, Mtb-lineage2, Day 14, read-out: MIC",57.4 µM
same,MIC,"Mtb-lineage2; 360 h, Mtb-lineage2 (a), Day 15, read-out: MIC",57.8 µM
same,MIC,"Mtb-lineage2; 360 h, Mtb-lineage2 (b), Day 15, read-out: MIC",86.7 µM
same,MIC,"Mtb-lineage2; […], Mtb-lineage2 (a), Day 11, read-out: MIC",56.4 µM
same,MIC,"Mtb-lineage2; […], Mtb-lineage2 (b), Day 11, read-out: MIC",61 µM
same,MIC,"Mtb-lineage2; […], Mtb-lineage2, Day 11, read-out: MIC",56.4 µM
same,susceptibility to direct inhibition,"Mtb-lineage4; Example 4, Mtb-lineage4, concentrations up to 200 μM",more susceptible to direct inhibition
same,MIC,"Mtb-lineage4; Mtb-lineage4, Day 11",Unstable
same,MIC,"Mtb-lineage4; Mtb-lineage4, Day 12",Unstable
same,MIC,"Mtb-lineage4; Mtb-lineage4, Day 13",Unstable
same,MIC,"Mtb-lineage4; Mtb-lineage4, Day 14",Unstable
same,direct inhibition of growth,Mtb-lineage4,not
same,MIC,"Mtb-lineage4; Mycobacterium tuberculosis, 240 h, Mtb-lineage4, Day 10, read-out: MIC",98.8 µM
same,direct inhibition of growth,M. bovis,directly restricted the growth
same,susceptibility to direct inhibition,M. bovis,more susceptible to direct inhibition
same,MIC,M. bovis; 240 h,8.39 µM
same,MIC,M. bovis; 288 h,21.1 µM
same,MIC,M. bovis; 312 h,25.6 µM
same,MIC,M. bovis; 336 h,30.3 µM
same,MIC,M. bovis; 360 h,35.2 µM
same,MIC,M. bovis; […],16.3 µM
same,MIC,"Maf-lineage5; 240 h, Maf-lineage5, Day 10",58.1 µM
same,MIC,"Maf-lineage5; 288 h, Maf-lineage5, Day 12",60.8 µM
same,MIC,"Maf-lineage5; 312 h, Maf-lineage5, Day 13",62 µM
same,MIC,"Maf-lineage5; 336 h, Maf-lineage5, Day 14",63.4 µM
same,MIC,"Maf-lineage5; 360 h, Maf-lineage5, Day 15",65.2 µM
same,susceptibility to direct inhibition,"Maf-lineage5; Example 4, Maf-lineage5, concentrations up to 200 μM",more susceptible to direct inhibition
same,MIC,"Maf-lineage5; Maf-lineage5, Day 11",59.5 µM
same,direct inhibition of growth,Maf-lineage5,not
same,response to drug,Maf-lineage6,didn't respond
same,susceptibility to direct inhibition,"Maf-lineage6; Example 4, Maf-lineage6 (c), concentrations up to 200 μM",more susceptible to direct inhibition
same,direct inhibition of growth,Maf-lineage6,not
same,MIC,"Maf-lineage6; 240 h, Maf-lineage6 (a), Day 10",~0.743 µM
same,MIC,"Maf-lineage6; 240 h, Maf-lineage6 (b), Day 10",~9090 µM
same,MIC,"Maf-lineage6; 240 h, Maf-lineage6 (c), Day 10",101 µM
same,MIC,"Maf-lineage6; 240 h, Maf-lineage6 (d), Day 10",~46400 µM
same,MIC,"Maf-lineage6; 288 h, Maf-lineage6 (a), Day 12",~0.594 µM
same,MIC,"Maf-lineage6; 288 h, Maf-lineage6 (b), Day 12",1460 µM
same,MIC,"Maf-lineage6; 288 h, Maf-lineage6 (c), Day 12",100 µM
same,MIC,"Maf-lineage6; 312 h, Maf-lineage6 (a), Day 13",~0.562 µM
same,MIC,"Maf-lineage6; 312 h, Maf-lineage6 (b), Day 13",1260 µM
same,MIC,"Maf-lineage6; 312 h, Maf-lineage6 (c), Day 13",100 µM
same,MIC,"Maf-lineage6; 336 h, Maf-lineage6 (a), Day 14",~0.541 µM
same,MIC,"Maf-lineage6; 336 h, Maf-lineage6 (b), Day 14",1520 µM
same,MIC,"Maf-lineage6; 336 h, Maf-lineage6 (c), Day 14",100 µM
same,MIC,"Maf-lineage6; 360 h, Maf-lineage6 (a), Day 15",~0.515 µM
same,MIC,"Maf-lineage6; 360 h, Maf-lineage6 (b), Day 15",~3590 µM
same,MIC,"Maf-lineage6; 360 h, Maf-lineage6 (c), Day 15",100 µM
same,MIC,"Maf-lineage6; […], Maf-lineage6 (a), Day 11",~0.721 µM
same,MIC,"Maf-lineage6; […], Maf-lineage6 (b), Day 11",~2390 µM
same,MIC,"Maf-lineage6; […], Maf-lineage6 (c), Day 11",101 µM
